Reference: patent publication US10202395B2, “Macrocycle with repeating triazole-carbazole units” (INDIANA UNIVERSITY RESEARCH & TECHNOLOGY CORPORATION, priority 2015, dated 2019)
Several values for one entry are separate records, joined by “and”; a condition that tells them apart may be missing. Identical values can stand only once.

How the values were obtained:
[1] = Anion binding constants by UV-Vis titration, PF6^−; conditions: 20% MeOH/CHCl3; for logβ2: 2:1 sandwich; for K2/K1: PF6^−, positive cooperativity
Method: (§1) FIG. 2B depicts an exemplary plot of anion binding constants obtained from equilibrium restricted factor analysis (D. A. Griend, D. K. Bediako, M. J. DeVries, N. A. DeJong, L. P. Heeringa, Inorg Chem 2008, 47, 656-662) of UV-Vis titration data (20% MeOH/CHCl3). Salts added as TBA^+ with exception of FeCl4^− added as the 1-ethyl-3-methylimidazolium salt.
(§2) The tricarb-anion stability constants were determined from UV-Vis titrations and evaluated using equilibrium restricted factor analysis (D. A. Griend, D. K. Bediako, M. J. DeVries, N. A. DeJong, L. P. Heeringa, Inorg Chem 2008, 47, 656-662) as implemented with Sivvu by employing the following equilibria: tricarb+X^− ? tricarb·X^−K1 (1) tricarb·X^−+tricarb ? tricarb2·X^−K2 (2) 2 tricarb+X^− ? tricarb2·X^−β2 (3)

[2] = Solution phase self-association, variable concentration UV-Vis, isodesmic equal-K model; assay type: physicochemical
Description: Solution phase self-association was examined using variable concentration ^1H NMR and UV-Vis spectra. All aromatic ^1H NMR peaks shift upfield (FIG. 3B) with concentration (10×10^−6 M−2×10^−3 M) consistent with p stacking (R. B. Martin, Chem. Rev. 1996, 96, 3043-3064). UV-Vis spectroscopy was used to quantify the extent of self-association (S. A. Jenekhe, L. Lu, M. M. Alam, Macromolecules 2001, 34, 7315-7324) (0.7 to 24×10^−6 M, FIG. 3C). An isodesmic equal-K model (R. B. Martin, Chem. Rev. 1996, 96, 3043-3064) was used to quantify self-association (KE) to give KE=300,000±10,000 M^−1 in 20% MeOH/CHCl3 (ε=10.4). The self-association is high relative to other macrocycles (W. Zhang, J. S. Moore, Angew. Chem. Int. Ed. 2006, 45, 4416-4439) and believed to be driven by solvophobic effects and dipolar coupling. Consistent with dipolar coupling, use of pure CHCl3 with a lower polarity (ε=4.8), increases KE to 790,000±30,000 M^−1 (S.-L. Lee, Z. Yuan, L. Chen, K. S. Mali, K. Müllen, S. De Feyter, J Am. Chem. Soc. 2014, 136, 4117-4120; S.-L. Lee, Z. Yuan, L. Chen, K. S. Mali, K. Müllen, S. De Feyter, J. Am. Chem. Soc. 2014; P. Samori, N. Severin, C. D. Simpson, K. Müllen, J. P. Rabe, J. Am. Chem. Soc. 2002, 124, 9454-9457).

[3] = Anion binding constants by UV-Vis titration, ClO4^−; conditions: 20% MeOH/CHCl3; for logβ2: 2:1 sandwich; for K2/K1: ClO4^−, positive cooperativity
Method: as §1, §2

[4] = Anion binding constants by UV-Vis titration, I^−; conditions: 20% MeOH/CHCl3; for K2/K1: I^−, positive cooperativity
Method: as §1, §2

[5] = Anion binding constants by UV-Vis titration, ReO4^−; conditions: 20% MeOH/CHCl3; for K2/K1: ReO4^−, positive cooperativity
Method: as §1, §2

[6] = Anion binding constants by UV-Vis titration, SbF6^−; conditions: 20% MeOH/CHCl3; for logβ2: 2:1 sandwich; for K2/K1: SbF6^−, positive cooperativity
Method: as §1, §2

[7] = Cyclic voltammetry in solution; assay type: physicochemical; conditions: 1×10^−3 M, 0.1 M tetrabutylammonium hexafluorophosphate, glassy carbon working electrode, chloroform, room temperature
Description: FIG. 7 depicts a representative current-voltage response curve recorded using cyclic voltammetry of tricarb of Formula (IB) in solution. […] Conditions: [tricarb of Formula (IB)]=1×10^−3 M, 0.1 M tetrabutylammonium hexafluorophosphate, glassy carbon working electrode, platinum counter electrode, chloroform, room temperature, Ar degassed.

[8] = Anion binding constants by UV-Vis titration, FeCl4^−; conditions: 20% MeOH/CHCl3; for K2/K1: FeCl4^−, positive cooperativity
Method: as §1, §2

[9] = PF6^− as tetrabutylammonium salt
[10] = listed as tricarb of Formula (I)
[11] = ClO4^− as tetrabutylammonium salt
[12] = ReO4^− as tetrabutylammonium salt
[13] = SbF6^− as tetrabutylammonium salt
[14] = FeCl4^− as 1-ethyl-3-methylimidazolium salt

logK1 [1, 9]: 4.46 ± 0.01 | logK2 [1, 9]: 6.94 ± 0.01 | logβ2 ([1]; PF6^− as tetrabutylammonium salt, listed as Tricarb of Formula (IB)): 11.4 | logβ2 ([1]; PF6^− as tetrabutylammonium salt, listed as tricarb): 11.40 ± 0.02 | K2/K1 ([1]; listed as tricarb): 300 ± 60 | K2/K1 [1, 10]: 300 | self-association (KE) ([2]; 20% MeOH/CHCl3 (ε=10.4), 0.7 to 24×10^−6 M): 300,000±10,000 M^−1 | self-association (KE) ([2]; pure CHCl3 (ε=4.8)): 790,000±30,000 M^−1 | logK1 [3, 11]: 4.04 ± 0.01 | logK2 [3, 11]: 5.87 ± 0.01 | logβ2 ([3]; ClO4^− as tetrabutylammonium salt, listed as Tricarb of Formula (IB)): 10 | logβ2 ([3]; ClO4^− as tetrabutylammonium salt, listed as tricarb): 10.04 ± 0.02 | K2/K1 ([3]; listed as tricarb): 67 ± 3 | K2/K1 [3, 10]: ~70 | logβ2 ([4]; I^− as tetrabutylammonium salt, 2:1 sandwich): 9.3 ± 0.3 | logK1 ([4]; I^− as tetrabutylammonium salt, tricarb+X^− = tricarb·X^−): 4.3 ± 0.1 | logK2 ([4]; I^− as tetrabutylammonium salt, tricarb·X^−+tricarb = tricarb2·X^−): 5.1 ± 0.2 | K2/K1 ([4]; listed as tricarb): 6 ± 3 | K2/K1 [4, 10]: ~5 | logK1 [5, 12]: 3.8 ± 0.1 | logK2 [5, 12]: 6.2 ± 0.1 | logβ2 ([5]; ReO4^− as tetrabutylammonium salt, 2:1 sandwich): 10.0 ± 0.2 | K2/K1 ([5]; listed as tricarb): 200 ± 100 | K2/K1 [5, 10]: 200 | logK1 [6, 13]: 5.2 ± 0.2 | logK2 [6, 13]: 6.4 ± 0.2 | logβ2 ([6]; SbF6^− as tetrabutylammonium salt, listed as Tricarb of Formula (IB)): 11.6 | logβ2 ([6]; SbF6^− as tetrabutylammonium salt, listed as tricarb): 11.6 ± 0.4 | K2/K1 ([6]; listed as tricarb): 30 ± 20 | K2/K1 [6, 10]: ~30 | half-wave oxidation potential E1/2 [7]: 0.8 V vs Ag/AgCl | peak potentials [7]: 0.95 V and 0.65 V | logK1 [8, 14]: 4.0 ± 0.1 | logK2 [8, 14]: 3.7 ± 0.2 | logβ2 ([8]; FeCl4^− as 1-ethyl-3-methylimidazolium salt, 2:1 sandwich): 7.7 ± 0.3 | K2/K1 ([8]; listed as tricarb): 5.2 ± 0.2 | K2/K1 [8, 10]: ~5
SMILES: CCCCCCCCCCn1c2ccc3cc2c2cc(ccc21)n1cc(nn1)c1ccc2c(c1)c1cc(ccc1n2CCCCCCCCCC)n1cc(nn1)c1ccc2c(c1)c1cc(ccc1n2CCCCCCCCCC)n1cc3nn1 [tricarb of Formula (IB), tridecyl-tricarbazolo-triazolophane]
